Measurements reported in PMC3176812, “Co-Crystal Structures of Inhibitors with MRCKβ, a Key Regulator of Tumor Cell Invasion” (PLoS ONE, 2011).

Legend:
MRCKβ = target: T1, MRCKβ (Homo sapiens, UniProt Q9Y5S2); assay: IMAP fluorescence polarization in vitro kinase assay, MRCKβ; format: biochemical; details: for inhibition at 3 µM: read-out: Inhibition at 3 µM (%); for inhibition at 30 µM: read-out: Inhibition at 30 µM (%); for Inhibition at 3 µM (%) / Inhibition at 30 µM (%): MRCKβ in vitro kinase assay, ATP at enzyme Km (0.7 µM); for Inhibition at 3 µM (%): 3 µM inhibitor; for Inhibition at 30 µM (%): 30 µM inhibitor; for IC50: 10 point dose-response, 0.002–40 µM, 0.7 µM ATP
T1 construct: purchased Millipore
T1 sequence (Q9Y5S2 whole entry): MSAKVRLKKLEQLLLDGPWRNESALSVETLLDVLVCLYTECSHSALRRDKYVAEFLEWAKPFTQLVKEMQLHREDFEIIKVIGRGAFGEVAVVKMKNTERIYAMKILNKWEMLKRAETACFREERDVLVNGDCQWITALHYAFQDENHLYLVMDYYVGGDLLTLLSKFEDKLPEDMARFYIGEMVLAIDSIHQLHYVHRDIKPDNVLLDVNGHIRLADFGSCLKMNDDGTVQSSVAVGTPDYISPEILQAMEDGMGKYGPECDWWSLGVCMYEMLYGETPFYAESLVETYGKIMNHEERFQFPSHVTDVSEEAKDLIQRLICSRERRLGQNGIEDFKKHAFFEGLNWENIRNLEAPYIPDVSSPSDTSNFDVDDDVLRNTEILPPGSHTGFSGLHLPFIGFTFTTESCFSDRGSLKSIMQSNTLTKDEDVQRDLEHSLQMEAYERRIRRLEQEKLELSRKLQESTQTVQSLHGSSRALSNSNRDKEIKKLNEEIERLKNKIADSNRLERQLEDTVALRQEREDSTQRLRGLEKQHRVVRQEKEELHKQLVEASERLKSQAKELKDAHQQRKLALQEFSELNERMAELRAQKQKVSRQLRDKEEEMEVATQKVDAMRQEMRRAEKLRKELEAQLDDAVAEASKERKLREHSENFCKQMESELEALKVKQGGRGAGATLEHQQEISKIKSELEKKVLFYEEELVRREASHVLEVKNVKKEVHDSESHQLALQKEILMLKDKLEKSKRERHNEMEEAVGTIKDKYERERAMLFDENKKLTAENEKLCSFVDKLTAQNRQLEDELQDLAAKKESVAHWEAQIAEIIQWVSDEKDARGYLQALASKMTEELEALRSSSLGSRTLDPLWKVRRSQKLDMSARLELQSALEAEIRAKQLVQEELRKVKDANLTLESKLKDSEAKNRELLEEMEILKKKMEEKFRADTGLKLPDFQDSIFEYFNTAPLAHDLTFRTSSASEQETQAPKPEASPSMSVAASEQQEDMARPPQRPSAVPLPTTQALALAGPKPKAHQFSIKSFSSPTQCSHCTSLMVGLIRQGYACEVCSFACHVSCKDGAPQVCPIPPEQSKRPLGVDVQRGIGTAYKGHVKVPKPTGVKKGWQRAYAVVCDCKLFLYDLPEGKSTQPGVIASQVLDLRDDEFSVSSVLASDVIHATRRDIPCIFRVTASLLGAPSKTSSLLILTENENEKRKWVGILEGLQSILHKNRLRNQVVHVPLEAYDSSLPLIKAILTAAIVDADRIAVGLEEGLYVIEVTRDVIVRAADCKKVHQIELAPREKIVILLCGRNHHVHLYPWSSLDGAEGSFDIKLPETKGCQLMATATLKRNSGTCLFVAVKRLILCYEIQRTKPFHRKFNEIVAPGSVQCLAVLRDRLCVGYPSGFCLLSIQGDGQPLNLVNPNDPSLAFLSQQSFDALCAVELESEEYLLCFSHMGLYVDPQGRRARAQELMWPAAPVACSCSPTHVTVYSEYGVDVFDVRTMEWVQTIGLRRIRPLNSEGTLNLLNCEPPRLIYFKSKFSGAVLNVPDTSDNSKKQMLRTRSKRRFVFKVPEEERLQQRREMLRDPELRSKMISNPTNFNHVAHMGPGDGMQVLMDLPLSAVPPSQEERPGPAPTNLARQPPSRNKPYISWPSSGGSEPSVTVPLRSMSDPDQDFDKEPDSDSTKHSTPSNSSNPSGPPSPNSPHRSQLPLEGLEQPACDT

[1] = system: MDA MB 231 breast cancer cells; assay: 3-dimensional inverse matrigel invasion assay; format: cell-based; details: 5 days
From the text: The contribution of MRCK to tumor cell invasion was examined by knocking down both MRCKα and MRCKβ in MB 231 breast cancer cells and determining the effects in a 3-dimensional inverse matrigel invasion assay. The combined MRCKα plus MRCKβ knockdown could be achieved either with two siRNA duplexes targeting each mRNA transcript (MRCKα+β) or with a single siRNA duplex (MRCKα/β) that targets both (Figure 1A). Following plating on the underside of Transwell inserts containing a thick layer of matrigel and allowing 5 days for invasion through the porous filter and into the matrigel, the extent of MDA MB 231 cell invasion was determined by fixing and staining cells with propidium iodide, followed by confocal microscopic optical sectioning at 10 µm intervals (Figure 1B).
Cell invasion assays were as previously described. Complete Matrigel was thawed on ice, diluted 1∶1 with PBS and then 100 µl of diluted matrigel pipetted into Transwell inserts in a 24 well tissue culture plate and left to incubate for 30 minutes at 37°C to set. During this time cell suspensions of 3×10^5 cells per ml from each condition were prepared in their normal growth medium. When the Matrigel had set, the Transwell inserts were inverted and 100 µl of cell suspension pipetted onto the filter. […] ImageJ software was used for quantification. […]

MRCKα = target: T2, MRCKα (Homo sapiens, UniProt Q5VT25); assay: IMAP fluorescence polarization in vitro kinase assay, MRCKα; format: biochemical; details: 10 point dose-response, 0.002–40 µM, 0.7 µM ATP
T2 construct: purchased Millipore
T2 sequence (Q5VT25 whole entry): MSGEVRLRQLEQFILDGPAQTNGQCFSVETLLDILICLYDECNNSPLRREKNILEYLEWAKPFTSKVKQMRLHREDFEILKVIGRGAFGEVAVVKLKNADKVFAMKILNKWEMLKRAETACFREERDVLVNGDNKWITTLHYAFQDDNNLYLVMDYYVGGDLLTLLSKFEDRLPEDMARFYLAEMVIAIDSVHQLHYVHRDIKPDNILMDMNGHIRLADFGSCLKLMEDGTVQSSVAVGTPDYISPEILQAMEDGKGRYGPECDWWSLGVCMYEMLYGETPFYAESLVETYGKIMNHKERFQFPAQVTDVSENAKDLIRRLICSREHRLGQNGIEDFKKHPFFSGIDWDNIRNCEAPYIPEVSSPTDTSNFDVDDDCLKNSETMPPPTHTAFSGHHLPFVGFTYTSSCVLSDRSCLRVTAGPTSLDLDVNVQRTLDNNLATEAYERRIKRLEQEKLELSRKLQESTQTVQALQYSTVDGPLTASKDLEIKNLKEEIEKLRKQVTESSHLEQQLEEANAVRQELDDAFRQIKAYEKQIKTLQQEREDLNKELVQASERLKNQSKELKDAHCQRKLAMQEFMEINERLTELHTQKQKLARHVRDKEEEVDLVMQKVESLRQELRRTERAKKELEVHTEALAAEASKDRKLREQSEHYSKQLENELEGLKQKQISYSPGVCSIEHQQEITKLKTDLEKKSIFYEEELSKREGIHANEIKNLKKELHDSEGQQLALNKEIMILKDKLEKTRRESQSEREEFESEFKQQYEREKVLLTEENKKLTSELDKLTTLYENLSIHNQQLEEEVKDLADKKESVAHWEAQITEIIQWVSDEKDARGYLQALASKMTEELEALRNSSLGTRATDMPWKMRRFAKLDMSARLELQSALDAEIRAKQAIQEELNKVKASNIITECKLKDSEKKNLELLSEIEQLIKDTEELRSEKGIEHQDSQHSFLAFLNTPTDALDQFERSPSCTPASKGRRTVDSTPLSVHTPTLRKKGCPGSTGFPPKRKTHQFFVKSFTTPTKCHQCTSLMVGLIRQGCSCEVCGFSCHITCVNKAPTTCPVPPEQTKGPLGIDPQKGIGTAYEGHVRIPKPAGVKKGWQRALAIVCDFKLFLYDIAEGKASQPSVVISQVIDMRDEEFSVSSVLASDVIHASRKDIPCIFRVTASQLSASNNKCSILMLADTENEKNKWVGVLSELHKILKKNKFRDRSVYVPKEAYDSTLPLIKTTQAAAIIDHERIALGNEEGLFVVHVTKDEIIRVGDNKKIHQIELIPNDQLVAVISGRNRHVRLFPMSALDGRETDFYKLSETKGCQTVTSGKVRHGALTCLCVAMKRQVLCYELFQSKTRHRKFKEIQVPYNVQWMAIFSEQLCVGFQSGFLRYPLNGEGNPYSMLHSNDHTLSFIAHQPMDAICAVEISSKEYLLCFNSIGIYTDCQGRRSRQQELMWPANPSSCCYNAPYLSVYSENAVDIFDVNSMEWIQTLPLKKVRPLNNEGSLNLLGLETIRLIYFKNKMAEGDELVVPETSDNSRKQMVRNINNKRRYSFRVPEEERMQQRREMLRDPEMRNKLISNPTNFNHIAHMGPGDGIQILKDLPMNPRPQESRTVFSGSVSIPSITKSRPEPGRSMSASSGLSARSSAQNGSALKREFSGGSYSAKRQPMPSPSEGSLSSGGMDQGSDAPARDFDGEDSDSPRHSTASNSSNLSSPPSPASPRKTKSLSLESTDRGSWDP
Protocol: Activity assays for MRCKα and β were performed using an IMAP fluorescence polarization assay kit (Molecular Devices Inc.). […] Dose response inhibition analyses were performed over a drug concentration range from 0.002–40 µM, and single point inhibition was assessed at 3 or 30 µM drug.

MRCK = system: MRCK; parameters: method as in earlier work; details: >140 times higher ATP concentration; ref 27 (Amano et al.); cited from earlier work

| Molecule | Inhibition at 3 µM (%) (MRCKβ) | Inhibition at 30 µM (%) (MRCKβ) | also measured |
| --- | --- | --- | --- |
| O=C1Cc2c([nH]c3ccc([N+](=O)[O-])cc23)-c2ccccc2N1 [Alsterpaullone] |  |  | inhibition at 3 µM (MRCKβ): 90.7%; inhibition at 30 µM (MRCKβ): 78.4% |
| N#CCCc1ccc2c(c1)-c1[nH]c3ccc([N+](=O)[O-])cc3c1CC(=O)N2 [Alsterpaullone, 2-Cyanoethyl] | 98.4 | 94.8 |  |
| C[C@@H](N)[C@H]1CC[C@H](C(=O)Nc2ccncc2)CC1 [Y-27632] | 83.5 | 96.6 | IC50 (MRCKβ): 470 ± 30 nM; Invasion 40 µm above the transwell filter surface, combination with MRCKα/β knockdown ([1]; MDA MB 231 cells with MRCKα/β siRNA knockdown plus Y-27632 treatment): significantly more effective than either MRCKα/β knockdown or Y-27632 treatment alone; Invasion 40 µm above the transwell filter surface, normalized to NTC siRNA transfected cells ([1]; NTC siRNA transfected MDA MB 231 cells): significantly reduced invasion |
| CCn1cnc2c(Nc3cccc(Cl)c3)nc(N[C@H]3CCCC[C@H]3N)nc21 [Cdk1 Inhibitor, CGP74514A] | 87.2 | 100 |  |
| NC(=O)Nc1sc(-c2ccc(F)cc2)cc1C(N)=O [TPCA-1, 2-[(aminocarbonyl)amino]-5-(4-fluorophenyl)-3-thiophenecarboxamide] |  |  | IC50 (MRCKα): 1040 ± 60 nM; IC50 (MRCKβ): 1690 ± 130 nM; inhibition at 3 µM (MRCKβ): 50.1%; inhibition at 30 µM (MRCKβ): 88.9% |
| CN[C@@H]1C[C@H]2O[C@@](C)([C@@H]1OC)n1c3ccccc3c3c4c(c5c6ccccc6n2c5c31)C(=O)NC4 [Staurosporine] |  |  | inhibition at 3 µM (MRCKβ): 98.6%; inhibition at 30 µM (MRCKβ): 100% |
| O=C1Nc2ccc3ncsc3c2/C1=C/c1cnc[nH]1 [PKR Inhibitor] | 80.1 | 100.5 |  |
| Cdk1/2 Inhibitor III | 100 | 100 |  |
| COc1ccc2c(c1)c(C1=C(c3c[nH]c4ccccc34)C(=O)NC1=O)cn2CCCN(C)C [Gö 6983] | 88.6 | 65.1 |  |
| O=S(=O)(NCCNC/C=C/c1ccc(Br)cc1)c1cccc2cnccc12 [H-89] | 79.3 | 99.1 |  |
| O=S(=O)(c1cccc2cnccc12)N1CCCNCC1 [Fasudil] |  |  | Inhibition of MRCK activity (MRCK): did not effectively inhibit MRCK activity |
| CN(C)C[C@H]1CCn2c(c(C3=C(c4cn(C)c5ccccc45)C(=O)NC3=O)c3ccccc32)C1 [Ro-32-0432] | 85.2 | 68.2 |  |
| CN(C)CCCn1cc(C2=C(c3c[nH]c4ccccc34)C(=O)NC2=O)c2ccccc21 [Bisindolylmaleimide I] | 87.9 |  |  |
| COC(=O)[C@@]1(O)C[C@H]2O[C@]1(C)n1c3ccccc3c3c4c(c5c6ccccc6n2c5c31)C(=O)NC4 [K-252a, Nocardiopsis sp., K-252a] | 87.3 | 98.4 |  |
